pIC50: −log10 of the molar value.
Tests used:
Cavia porcellus [1] = assay: Compound was tested for antigen induced airway obstruction in guinea pig at 1.0 hr upon peroral administration; assay type: functional; details: po
U-937 = assay: Compound was evaluated for influx of calcium mobilization in human U937 cells; assay type: functional, cell-based
Cavia porcellus [2] = assay: Compound was tested for antigen induced airway obstruction in guinea pig at 2.0 hr upon peroral administration; assay type: functional; details: po

**Q.** What does the source list for O=C(Nc1cccc2c(=O)cc(-c3nnn[nH]3)oc12)c1ccc(OCCCCc2ccccc2)cc1?
**A.** ED50 (Cavia porcellus [1]): 1.5 mg/kg; pIC50 (U-937): 9.00

**Q.** For O=C(O)c1cccc(C[C@@H]2COc3ccc(OCc4nc5cc(F)ccc5s4)cc3[C@@H]2O)c1, which ED50 (Cavia porcellus [2]) is on record?
**A.** The ED50 was 10.2 mg/kg.

**Q.** What about the pIC50 (U-937) of the same compound?
**A.** The pIC50 was 6.51.

**Q.** With C[C@H]1Oc2ccc(OCc3nc4cc(F)ccc4s3)cc2[C@H](O)[C@@H]1Cc1cccc(NS(=O)(=O)C(F)(F)F)c1 (stereo in doubt; (+)-26) as the compound, how does the ED50 (Cavia porcellus [1]) read?
**A.** The ED50 was 0.5 mg/kg.

**Q.** And the pIC50 (U-937)?
**A.** The pIC50 was 8.10.

**Q.** Which ED50 (Cavia porcellus [2]) does the source give for COc1cc(C(=O)NS(=O)(=O)c2ccccc2C)ccc1Cc1cn(C)c2ccc(NC(=O)OC3CCCC3)cc12 [ZAFIRLUKAST] here?
**A.** Its ED50 is 0.9 mg/kg.

Reference: ChEMBL document CHEMBL1131366, “Development of new chromanol antagonists of leukotriene D4” (Bioorg Med Chem Lett, 1998)
